ChEMBL document CHEMBL1201862, “PubChem BioAssay data set” (2004)
Activity calls are given as the source filed them.

Legend:
Type in all cases: functional
[1] = target: Calcium/calmodulin-dependent protein kinase type II subunit gamma (Homo sapiens, UniProt Q13555)
[2] = target: Serine/threonine-protein kinase Nek4 (Homo sapiens, UniProt P51957)
[3] = target: Testis-specific serine/threonine-protein kinase 2 (Homo sapiens, UniProt Q96PF2);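 also: part of the Navigating the Kinome panel, target entry STK22B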
Chain of Testis-specific serine/threonine-protein kinase 2 (Q96PF2 whole entry): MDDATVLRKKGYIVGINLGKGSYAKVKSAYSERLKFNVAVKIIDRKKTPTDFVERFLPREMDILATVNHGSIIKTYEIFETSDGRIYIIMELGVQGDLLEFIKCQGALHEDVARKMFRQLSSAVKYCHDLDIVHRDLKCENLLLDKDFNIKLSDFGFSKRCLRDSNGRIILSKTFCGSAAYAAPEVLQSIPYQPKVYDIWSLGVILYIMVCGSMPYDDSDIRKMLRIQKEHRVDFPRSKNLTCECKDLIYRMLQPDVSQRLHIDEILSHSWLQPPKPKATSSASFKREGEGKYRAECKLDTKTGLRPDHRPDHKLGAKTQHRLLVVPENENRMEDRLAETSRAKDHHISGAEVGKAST

[4] = target: Protein kinase C delta type (Homo sapiens, UniProt Q05655)
Chain of Protein kinase C delta type (Q05655 whole entry): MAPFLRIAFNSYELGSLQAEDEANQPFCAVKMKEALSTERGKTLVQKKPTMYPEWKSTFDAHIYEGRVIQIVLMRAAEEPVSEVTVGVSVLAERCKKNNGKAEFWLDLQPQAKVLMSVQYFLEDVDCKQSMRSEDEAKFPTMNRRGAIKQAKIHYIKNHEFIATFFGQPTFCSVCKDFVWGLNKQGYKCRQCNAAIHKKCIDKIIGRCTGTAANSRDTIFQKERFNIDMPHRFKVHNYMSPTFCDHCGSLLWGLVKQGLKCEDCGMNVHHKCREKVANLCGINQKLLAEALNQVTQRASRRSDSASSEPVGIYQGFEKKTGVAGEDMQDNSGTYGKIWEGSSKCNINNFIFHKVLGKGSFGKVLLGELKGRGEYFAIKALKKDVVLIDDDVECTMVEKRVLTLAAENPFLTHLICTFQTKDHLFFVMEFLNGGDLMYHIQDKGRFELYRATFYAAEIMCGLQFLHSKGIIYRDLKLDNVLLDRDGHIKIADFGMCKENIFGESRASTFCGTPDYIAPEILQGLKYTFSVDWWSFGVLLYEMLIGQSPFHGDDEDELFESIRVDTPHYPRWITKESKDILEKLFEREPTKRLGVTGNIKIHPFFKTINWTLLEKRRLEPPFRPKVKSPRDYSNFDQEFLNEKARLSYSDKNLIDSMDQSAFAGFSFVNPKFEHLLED

[5] = target: T1, Serine/threonine-protein kinase BRSK1 (Homo sapiens, UniProt Q8TDC3);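 also: measured within a kinome-wide kinase panel, with the target listed as KIAA1811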
T1 sequence (Q8TDC3 whole entry): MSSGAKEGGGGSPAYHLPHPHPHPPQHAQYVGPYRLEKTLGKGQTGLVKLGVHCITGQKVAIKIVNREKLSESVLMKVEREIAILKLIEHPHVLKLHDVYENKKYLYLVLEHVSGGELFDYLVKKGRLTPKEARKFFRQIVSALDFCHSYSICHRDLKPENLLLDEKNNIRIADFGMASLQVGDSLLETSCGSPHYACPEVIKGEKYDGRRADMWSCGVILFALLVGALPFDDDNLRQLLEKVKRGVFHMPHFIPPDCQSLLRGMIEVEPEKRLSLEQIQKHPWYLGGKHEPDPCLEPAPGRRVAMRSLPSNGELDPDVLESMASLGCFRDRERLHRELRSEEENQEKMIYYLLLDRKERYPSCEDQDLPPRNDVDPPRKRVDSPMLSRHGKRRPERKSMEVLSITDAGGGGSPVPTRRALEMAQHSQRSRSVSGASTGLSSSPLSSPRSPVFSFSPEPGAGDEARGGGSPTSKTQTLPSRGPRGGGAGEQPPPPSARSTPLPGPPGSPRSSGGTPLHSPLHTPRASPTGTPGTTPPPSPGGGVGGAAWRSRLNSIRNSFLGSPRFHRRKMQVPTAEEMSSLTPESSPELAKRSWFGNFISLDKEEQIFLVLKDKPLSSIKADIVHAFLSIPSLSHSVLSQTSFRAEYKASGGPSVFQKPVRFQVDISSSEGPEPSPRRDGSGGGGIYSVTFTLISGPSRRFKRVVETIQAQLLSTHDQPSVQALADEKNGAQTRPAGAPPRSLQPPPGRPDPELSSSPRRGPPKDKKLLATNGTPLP

[6] = target: Calcium/calmodulin-dependent protein kinase type II subunit delta (Homo sapiens, UniProt Q13557)
Chain of Calcium/calmodulin-dependent protein kinase type II subunit delta (Q13557 whole entry): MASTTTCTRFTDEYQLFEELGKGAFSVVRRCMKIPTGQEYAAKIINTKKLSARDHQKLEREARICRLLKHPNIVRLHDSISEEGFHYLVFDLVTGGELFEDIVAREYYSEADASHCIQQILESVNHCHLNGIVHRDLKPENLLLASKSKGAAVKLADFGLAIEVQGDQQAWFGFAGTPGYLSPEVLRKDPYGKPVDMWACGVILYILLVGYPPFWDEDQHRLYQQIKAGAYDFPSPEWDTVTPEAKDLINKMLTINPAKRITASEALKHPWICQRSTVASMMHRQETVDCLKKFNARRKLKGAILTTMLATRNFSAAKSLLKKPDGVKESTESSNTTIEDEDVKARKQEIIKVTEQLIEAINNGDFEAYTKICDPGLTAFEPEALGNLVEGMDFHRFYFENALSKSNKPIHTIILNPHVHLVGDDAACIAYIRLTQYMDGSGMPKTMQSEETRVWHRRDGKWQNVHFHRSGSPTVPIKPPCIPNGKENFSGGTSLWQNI

[7] = target: T2, Dual specificity tyrosine-phosphorylation-regulated kinase 4 (Homo sapiens, UniProt Q9NR20)
T2 sequence (Q9NR20 whole entry): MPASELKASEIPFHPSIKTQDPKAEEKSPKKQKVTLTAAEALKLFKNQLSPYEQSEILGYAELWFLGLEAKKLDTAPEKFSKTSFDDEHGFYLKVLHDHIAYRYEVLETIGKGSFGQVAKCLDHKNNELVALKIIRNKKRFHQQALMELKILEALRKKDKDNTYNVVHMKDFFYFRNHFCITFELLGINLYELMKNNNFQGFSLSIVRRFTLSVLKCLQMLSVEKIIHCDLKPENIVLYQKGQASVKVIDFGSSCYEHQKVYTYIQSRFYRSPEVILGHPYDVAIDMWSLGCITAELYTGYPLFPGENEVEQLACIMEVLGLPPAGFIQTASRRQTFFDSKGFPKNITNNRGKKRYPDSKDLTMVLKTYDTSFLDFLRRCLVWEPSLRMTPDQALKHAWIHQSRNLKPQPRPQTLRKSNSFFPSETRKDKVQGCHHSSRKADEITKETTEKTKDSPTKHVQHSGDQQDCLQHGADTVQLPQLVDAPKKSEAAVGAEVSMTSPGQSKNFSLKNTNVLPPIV

[8] = target: Macrophage colony-stimulating factor 1 receptor (Homo sapiens, UniProt P07333);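 also: value comes from the Navigating the Kinome screening panel, CSF1R member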
Chain of Macrophage colony-stimulating factor 1 receptor (P07333 whole entry): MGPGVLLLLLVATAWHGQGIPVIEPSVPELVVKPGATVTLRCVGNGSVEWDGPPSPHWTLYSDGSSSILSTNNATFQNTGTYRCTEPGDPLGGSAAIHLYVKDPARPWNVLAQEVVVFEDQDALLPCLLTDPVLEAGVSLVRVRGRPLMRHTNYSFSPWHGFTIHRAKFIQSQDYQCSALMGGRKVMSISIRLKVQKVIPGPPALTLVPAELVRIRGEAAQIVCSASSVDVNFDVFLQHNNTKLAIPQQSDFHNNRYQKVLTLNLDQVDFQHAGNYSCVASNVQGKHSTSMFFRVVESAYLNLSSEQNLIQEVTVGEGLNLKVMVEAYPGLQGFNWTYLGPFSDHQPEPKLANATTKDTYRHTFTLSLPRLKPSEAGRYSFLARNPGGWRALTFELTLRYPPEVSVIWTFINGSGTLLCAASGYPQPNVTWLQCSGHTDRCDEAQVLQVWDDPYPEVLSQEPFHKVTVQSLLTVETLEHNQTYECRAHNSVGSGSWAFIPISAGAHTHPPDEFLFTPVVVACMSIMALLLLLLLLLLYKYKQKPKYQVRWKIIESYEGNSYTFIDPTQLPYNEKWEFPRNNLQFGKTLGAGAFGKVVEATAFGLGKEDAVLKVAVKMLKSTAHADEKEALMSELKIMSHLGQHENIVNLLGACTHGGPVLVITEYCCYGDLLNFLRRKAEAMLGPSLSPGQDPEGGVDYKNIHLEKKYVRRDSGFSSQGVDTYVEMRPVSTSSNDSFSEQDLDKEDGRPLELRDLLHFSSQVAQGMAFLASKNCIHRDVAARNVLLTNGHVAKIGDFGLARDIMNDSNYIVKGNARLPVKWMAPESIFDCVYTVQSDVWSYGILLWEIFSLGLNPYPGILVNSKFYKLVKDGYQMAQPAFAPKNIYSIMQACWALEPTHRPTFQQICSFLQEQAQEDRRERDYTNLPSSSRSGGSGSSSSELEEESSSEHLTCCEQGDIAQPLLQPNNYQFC

[9] = target: ALK tyrosine kinase receptor (Homo sapiens, UniProt Q9UM73);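 also: ALK tested as one member of a kinase panel screen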
[10] = target: T3, Dual specificity tyrosine-phosphorylation-regulated kinase 3 (Homo sapiens, UniProt O43781);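 also: measured as one member of a broad kinase panel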
T3 sequence (O43781 whole entry): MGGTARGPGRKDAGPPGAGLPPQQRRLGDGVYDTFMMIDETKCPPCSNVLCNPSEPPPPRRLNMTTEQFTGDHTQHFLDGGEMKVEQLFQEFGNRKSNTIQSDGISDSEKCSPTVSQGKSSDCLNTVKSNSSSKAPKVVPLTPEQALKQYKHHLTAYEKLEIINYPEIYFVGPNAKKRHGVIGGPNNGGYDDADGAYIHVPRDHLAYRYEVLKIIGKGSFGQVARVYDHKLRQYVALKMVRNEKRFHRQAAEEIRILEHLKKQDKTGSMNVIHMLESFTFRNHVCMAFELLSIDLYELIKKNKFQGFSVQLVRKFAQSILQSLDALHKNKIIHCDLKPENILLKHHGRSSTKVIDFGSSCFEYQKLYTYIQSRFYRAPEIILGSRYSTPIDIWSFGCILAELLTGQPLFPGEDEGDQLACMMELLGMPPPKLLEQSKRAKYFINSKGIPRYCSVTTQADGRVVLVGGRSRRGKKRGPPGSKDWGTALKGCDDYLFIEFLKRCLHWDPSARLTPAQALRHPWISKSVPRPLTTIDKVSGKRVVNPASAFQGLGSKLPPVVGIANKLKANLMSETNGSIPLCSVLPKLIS

[11] = target: Ephrin type-A receptor 2 (Homo sapiens, UniProt P29317);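 also: EPHA2 tested as one member of a kinome-wide kinase panel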
Chain of Ephrin type-A receptor 2 (P29317 whole entry): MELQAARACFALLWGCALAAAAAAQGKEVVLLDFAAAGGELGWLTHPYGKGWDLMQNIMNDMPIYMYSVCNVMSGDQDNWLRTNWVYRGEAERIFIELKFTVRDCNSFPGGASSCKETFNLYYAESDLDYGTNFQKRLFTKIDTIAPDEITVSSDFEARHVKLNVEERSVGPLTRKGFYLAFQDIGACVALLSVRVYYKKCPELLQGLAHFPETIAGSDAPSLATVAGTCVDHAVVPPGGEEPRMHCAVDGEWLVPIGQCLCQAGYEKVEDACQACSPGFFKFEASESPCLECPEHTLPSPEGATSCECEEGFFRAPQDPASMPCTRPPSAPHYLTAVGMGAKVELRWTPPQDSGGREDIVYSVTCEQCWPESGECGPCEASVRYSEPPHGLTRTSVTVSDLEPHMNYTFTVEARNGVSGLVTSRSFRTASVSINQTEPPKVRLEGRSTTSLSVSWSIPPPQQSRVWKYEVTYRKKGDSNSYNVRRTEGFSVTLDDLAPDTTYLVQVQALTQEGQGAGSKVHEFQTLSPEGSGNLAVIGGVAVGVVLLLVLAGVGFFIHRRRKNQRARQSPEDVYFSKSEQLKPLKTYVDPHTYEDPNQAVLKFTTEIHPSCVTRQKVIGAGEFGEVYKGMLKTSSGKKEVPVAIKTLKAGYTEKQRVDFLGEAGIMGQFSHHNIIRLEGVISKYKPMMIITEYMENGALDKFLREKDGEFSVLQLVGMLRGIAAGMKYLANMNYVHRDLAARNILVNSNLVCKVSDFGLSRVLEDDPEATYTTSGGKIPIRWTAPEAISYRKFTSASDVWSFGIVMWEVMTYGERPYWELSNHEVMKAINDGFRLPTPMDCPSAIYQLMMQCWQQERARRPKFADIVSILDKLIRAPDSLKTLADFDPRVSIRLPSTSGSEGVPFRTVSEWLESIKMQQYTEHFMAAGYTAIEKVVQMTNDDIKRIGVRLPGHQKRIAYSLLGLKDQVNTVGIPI

Chain of Serine/threonine-protein kinase Nek4 (P51957 whole entry): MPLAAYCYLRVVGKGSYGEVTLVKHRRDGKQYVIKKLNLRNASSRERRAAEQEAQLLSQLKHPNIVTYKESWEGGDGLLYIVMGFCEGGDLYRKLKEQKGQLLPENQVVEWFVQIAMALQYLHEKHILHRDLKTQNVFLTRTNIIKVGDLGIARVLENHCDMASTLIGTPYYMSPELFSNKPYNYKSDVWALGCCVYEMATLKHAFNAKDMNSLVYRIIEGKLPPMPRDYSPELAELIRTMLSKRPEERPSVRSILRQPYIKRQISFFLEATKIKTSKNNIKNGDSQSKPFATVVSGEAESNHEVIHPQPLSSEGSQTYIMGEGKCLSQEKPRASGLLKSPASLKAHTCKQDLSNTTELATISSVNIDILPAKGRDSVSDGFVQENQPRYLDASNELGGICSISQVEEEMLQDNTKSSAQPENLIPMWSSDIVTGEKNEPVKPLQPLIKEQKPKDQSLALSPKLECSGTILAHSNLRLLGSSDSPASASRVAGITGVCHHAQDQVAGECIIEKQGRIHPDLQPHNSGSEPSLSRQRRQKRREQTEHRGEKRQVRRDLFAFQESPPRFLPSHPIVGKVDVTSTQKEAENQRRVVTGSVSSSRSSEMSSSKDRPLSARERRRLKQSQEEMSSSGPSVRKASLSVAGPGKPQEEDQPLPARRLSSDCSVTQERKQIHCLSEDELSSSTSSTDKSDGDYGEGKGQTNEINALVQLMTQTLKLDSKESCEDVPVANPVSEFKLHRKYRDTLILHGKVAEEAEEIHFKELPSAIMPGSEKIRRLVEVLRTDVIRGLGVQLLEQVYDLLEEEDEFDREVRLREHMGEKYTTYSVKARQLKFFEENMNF
Chain of Calcium/calmodulin-dependent protein kinase type II subunit gamma (Q13555 whole entry): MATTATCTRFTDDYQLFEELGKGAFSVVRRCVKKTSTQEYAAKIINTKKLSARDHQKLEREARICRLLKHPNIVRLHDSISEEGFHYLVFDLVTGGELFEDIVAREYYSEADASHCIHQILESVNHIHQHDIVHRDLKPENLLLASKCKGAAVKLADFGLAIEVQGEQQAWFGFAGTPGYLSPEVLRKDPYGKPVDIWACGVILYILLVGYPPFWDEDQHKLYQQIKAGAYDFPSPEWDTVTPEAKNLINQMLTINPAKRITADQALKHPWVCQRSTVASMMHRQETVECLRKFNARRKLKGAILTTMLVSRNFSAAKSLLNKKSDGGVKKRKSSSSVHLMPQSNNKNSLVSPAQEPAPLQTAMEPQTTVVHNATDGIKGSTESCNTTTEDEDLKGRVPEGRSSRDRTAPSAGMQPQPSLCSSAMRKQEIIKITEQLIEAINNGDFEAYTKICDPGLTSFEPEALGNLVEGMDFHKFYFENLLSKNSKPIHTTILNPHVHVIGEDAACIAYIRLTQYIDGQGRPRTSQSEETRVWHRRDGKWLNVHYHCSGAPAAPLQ

Ki [1] | pKi [1] | Ki [2] | pKi [2] | Ki [3] | Ki [4] | pKi [4] | Ki [5] | pKi [5] | Ki [6] | Ki [7] | pKi [7] | Ki [8] | Ki [9] | Ki [10] | pKi [10] | Ki [11] | Structure (SMILES)
6310 nM (active) | 5.2 | 50.1 nM (active) | 7.3 | > 1580 nM (inactive) | 158 nM (active) | 6.8 | 6310 nM (active) | 5.2 | > 3160 nM (inactive) | 10 nM (active) | 8 | > 2510 nM (inactive) | > 1260 nM (inactive) | 10 nM (active) | 8 | > 3160 nM (inactive) | NC(=O)c1cc(-c2ccnc(N)n2)[nH]c1-c1ccc(Cl)cc1Cl
25.1 nM (active) |  | 1580 nM (active) |  | 794 nM (active) | 20 nM (active) |  | 158 nM (active) |  | 15.8 nM (active) | 398 nM (active) |  | > 2510 nM (inactive) | > 1260 nM (inactive) | 7.94 nM (active) |  | > 3160 nM (inactive) | NC(COc1cncc(-c2ccc3c(c2)C(=Cc2ccco2)C(=O)N3)c1)Cc1c[nH]c2ccccc12 (stereo not drawn)
